In paper PMC6412891, “Synthesis and Biological Evaluation of Novel Thiazolyl-Coumarin Derivatives as Potent Histone Deacetylase Inhibitors with Antifibrotic Activity” (Molecules, 2019) one finds IC50, CC50 and inhibition data, which are given here for four molecules.

For series [1], the system named is HDACs HeLa cells nuclear extract. The experiment in a line: HDAC inhibitory activity, fluorometric kit, HeLa cell nuclear extract. The note with it: HeLa cell nuclear extract as HDAC source. In kind it is biochemical, human.
Series [2] deals with T1, HDAC1 human recombinant (Homo sapiens, UniProt Q13547).
T1 construct: purchased Enzo Life Science BML-AK511
T1 sequence (Q13547 whole entry): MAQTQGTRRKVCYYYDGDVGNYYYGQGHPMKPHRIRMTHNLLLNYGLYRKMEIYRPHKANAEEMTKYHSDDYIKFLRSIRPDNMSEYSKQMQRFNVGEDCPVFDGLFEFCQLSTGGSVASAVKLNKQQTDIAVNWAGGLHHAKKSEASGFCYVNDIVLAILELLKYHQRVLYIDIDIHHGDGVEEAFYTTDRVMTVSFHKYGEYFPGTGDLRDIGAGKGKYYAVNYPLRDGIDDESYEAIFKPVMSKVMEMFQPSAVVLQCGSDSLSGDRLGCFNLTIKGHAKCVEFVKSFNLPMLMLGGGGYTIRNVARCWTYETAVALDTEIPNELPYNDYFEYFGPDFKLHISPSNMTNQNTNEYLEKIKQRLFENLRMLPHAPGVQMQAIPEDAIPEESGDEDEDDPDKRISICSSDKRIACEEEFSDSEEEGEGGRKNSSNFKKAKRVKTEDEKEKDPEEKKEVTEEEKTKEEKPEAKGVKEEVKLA
The experiment in a line: HDAC1 inhibitory activity, fluorometric kit. The series is classed as biochemical. As to conditions: Class I.

Series [3] deals with T2, HDAC6 human recombinant (Homo sapiens, UniProt Q9UBN7).
T2 construct: purchased Enzo Life Science BML-AK516
T2 sequence (Q9UBN7 1-1215): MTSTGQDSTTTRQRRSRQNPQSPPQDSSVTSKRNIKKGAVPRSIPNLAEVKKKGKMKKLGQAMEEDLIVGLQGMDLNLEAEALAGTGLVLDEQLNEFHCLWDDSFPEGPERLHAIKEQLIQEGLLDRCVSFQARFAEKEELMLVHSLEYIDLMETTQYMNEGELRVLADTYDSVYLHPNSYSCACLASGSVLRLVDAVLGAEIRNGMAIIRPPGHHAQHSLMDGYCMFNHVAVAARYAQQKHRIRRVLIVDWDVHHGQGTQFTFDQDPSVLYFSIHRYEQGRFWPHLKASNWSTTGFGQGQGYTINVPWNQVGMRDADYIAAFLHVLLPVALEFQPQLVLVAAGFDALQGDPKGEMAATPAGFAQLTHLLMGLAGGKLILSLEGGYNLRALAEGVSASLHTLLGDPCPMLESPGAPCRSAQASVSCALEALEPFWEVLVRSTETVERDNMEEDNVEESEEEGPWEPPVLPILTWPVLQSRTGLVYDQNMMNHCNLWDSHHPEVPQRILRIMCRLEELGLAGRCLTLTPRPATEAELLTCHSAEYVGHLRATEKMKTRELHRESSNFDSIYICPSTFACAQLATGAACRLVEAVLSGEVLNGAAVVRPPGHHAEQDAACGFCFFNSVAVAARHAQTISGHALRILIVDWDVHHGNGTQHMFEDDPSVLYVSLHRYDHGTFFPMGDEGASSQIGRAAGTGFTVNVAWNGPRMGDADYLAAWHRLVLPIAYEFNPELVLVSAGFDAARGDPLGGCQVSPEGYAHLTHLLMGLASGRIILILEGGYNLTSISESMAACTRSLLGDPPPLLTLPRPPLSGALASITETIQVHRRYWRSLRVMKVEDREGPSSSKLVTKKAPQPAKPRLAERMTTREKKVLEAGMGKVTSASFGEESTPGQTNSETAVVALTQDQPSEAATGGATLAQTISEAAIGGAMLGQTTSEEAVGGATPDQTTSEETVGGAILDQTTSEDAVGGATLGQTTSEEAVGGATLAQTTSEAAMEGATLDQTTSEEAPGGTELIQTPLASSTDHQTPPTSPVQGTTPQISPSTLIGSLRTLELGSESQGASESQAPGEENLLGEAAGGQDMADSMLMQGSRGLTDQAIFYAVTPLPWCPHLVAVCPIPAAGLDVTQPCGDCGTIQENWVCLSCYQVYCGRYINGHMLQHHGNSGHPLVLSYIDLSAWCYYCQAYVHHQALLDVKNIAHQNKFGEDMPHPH
In words: HDAC6 inhibitory activity, fluorometric kit. In kind it is biochemical. The note with it: Class II.

Series [4] can be described thus: Cytotoxicity assay (Alamar Blue) in cardiac fibroblasts. The series is classed as cell-based, rat. As to conditions: Sprague-Dawley, rat, primary neonatal rat cardiac fibroblasts (CFs), CFs treated for 48 h. Here is the method:
CFs were treated for 48 h with all the new CTz derivatives in a broad concentration range (100 μM^−1 mM), and their cytotoxicity was then evaluated. In Table 3 cytotoxic concentration 50 (CC50) values for each of the synthesized compounds are shown. […] When comparing the different ZBG the series 5 is the least cytotoxic for CFs, while series 8 was the most cytotoxic.
(§1) Sprague Dawley rats were obtained from the Animal Breeding Facility of the School of Chemical and Pharmaceutical Sciences at the University of Chile. All studies followed the Guide for the Care and Use of Laboratory Animals published by the US National Institutes of Health (NIH Publication 8th, 2011), and experimental protocols were approved by the University of Chile Institutional Ethics Review Committee. CF were isolated from of 2 or 3–day–old Sprague-Dawley rats and cultured as described previously. Briefly, the neonatal rats were decapitated and their hearts were extracted under aseptic environment. Atria were removed and ventricles were cut into small pieces (~1–2 mm) for posterior colagenase II digestion. The digestion yield was separated by 10 min centrifugation at 89×g. The pellet was resuspended in 10 mL of Dulbecco’s Modified Eagle’s Medium/Nutrient F-12 (DMEM-F12) supplemented with 10% FBS and antibiotics (100 μg/mL streptomycin and 100 units/mL penicillin) and cultured in a humid atmosphere of 5% CO2 and 95% O2 at 37°C until confluence (5 days). The purity of the CFs population was assessed through the expression of several markers. CFs had positive staining against vimentin (Santa Cruz Biotechnology), while being negative against sarcomeric actin and desmin (Sigma-Aldrich). Experiments were performed on cells at passage 1. Cells were cultured in 35-mm well plates and serum starved for 24 h prior to stimulation.
(§2) To evaluate cytotoxicity, CFs were seeded in 12 microwell plates at a ratio of 2 × 10^4 cell/cm^2, cultured in DMEM–F12 medium + 10% FBS, which was subsequently replaced by DMEM–F12. After 24 h of serum starvation derivatives were applied at proper times and concentrations in accordance to experimental procedures. Cell viability assays were carried out using Alamar Blue®, a nontoxic, cell permeable non fluorescent compound that is blue in color. Viable cells reduce resazurin to resorufin, which produces very bright red fluorescence which is used as a quantitative cell viability measure. 10 μL of 0.2 mg/mL Alamar Blue® was added into each well followed by incubation for 24 h. The fluorescence of Alamar Blue® was read using microplate reader at 570 excitation and emission to 595 nm. Cell survival was expressed as percentage over the untreated cells. To evaluate CFs proliferation assay, cells were seeded as mentioned before, and after serum starvation, they were stimulated by 10% fetal bovine serum (FBS), in presence/absence of CTz derivatives for 24 h, at concentrations according to experiment. Cell proliferation was quantified by Alamar Blue®, according to protocol mentioned before. Cell proliferation was expressed as percentage over the control FBS treated cells.
Background: Resazurin is reduced to fluorescent resorufin, in cell work by metabolically active cells.

The subject of series [5] is neonatal rat cardiac fibroblasts (CFs). In words: FBS-induced cardiac fibroblast proliferation assay (Alamar Blue). The series is classed as cell-based. As to conditions: 10% FBS-induced CF proliferation, 48 h, read-out: Inhibition percentage of cell proliferation. Here is the method: CFs were treated for 48 h with 10% fetal bovine serum (FBS), to induce CFs proliferation in presence/absence of each new CTz derivatives in a concentration range of 1–10 μM. In Table 4, the inhibition percentage of cell proliferation for each concentration of the synthesized compounds are shown. All derivatives inhibited CFs proliferation induce by serum.
as §1, with “Cells were cultured in 35-mm well plates and serum starved for 24 h prior to stimulation.” left out
as §2, with “10 μL of 0.2 mg/mL Alamar Blue® was added into each well followed by incubation for 24 h.” left out, “To evaluate CFs proliferation assay, cells were seeded as mentioned before, and after serum starvation, they were stimulated by 10% fetal bovine serum (FBS), in presence/absence of CTz derivatives for 24 h, at concentrations according to experiment.” left out

The term IC50 denotes the concentration that gives 50% inhibition. What is called CC50 is the concentration that lowers cell viability or growth by half. Higher therefore signals better tolerance by the cells.

In the case of `O=C(Nc1nc(-c2cc3cc(Br)ccc3oc2=O)cs1)c1ccc(O)c(O)c1` [Compound 6b], the IC50 in series [1] came out at 0.509 ± 0.0233 µM; in series [2], 0.613 ± 0.0328 µM; in series [3], 0.449 ± 0.0207 µM. Besides, the CC50 at 48 h in series [4] came to 102 ± 10.3 µM. For the same molecule, the inhibition at 1 µM in series [5] is 15.8 ± 3.6%. Besides, in series [5], the inhibition at 5 µM was determined as 40 ± 1.8%. Further, in series [5], the inhibition at 10 µM worked out at 64.1 ± 1.7%.

In the case of `COc1ccc2oc(=O)c(-c3csc(NC(=O)c4ccc(O)c(O)c4)n3)cc2c1` [Compound 6c], the IC50 was determined as 0.477 ± 0.0275 µM in series [1], 0.504 ± 0.0314 µM in series [2] and 0.581 ± 0.0275 µM in series [3]. Also, in series [4], the CC50 at 48 h stood at 124 ± 12.8 µM. For the same molecule, the inhibition at 1 µM in series [5] came out at 10.9 ± 3.6%. For the same molecule, in series [5], the inhibition at 5 µM stood at 42.2 ± 1.8%. Further, in series [5], the inhibition at 10 µM is 64.9 ± 2.3%.

In series [1], `O=C(O)CCCCC(=O)Nc1nc(-c2cc3cc(Br)ccc3oc2=O)cs1` [Compound 7b] displayed an IC50 of 5.4 ± 0.4 µM. The IC50 in series [2] was found to be 4.67 ± 0.362 µM. Besides, the 50% inhibitory concentration (IC50) in series [3] came out at 6.34 ± 0.466 µM. Moreover, in series [4], the half-maximal cytotoxic concentration (CC50) at 48 h worked out at 80 ± 23.6 µM. Besides, in series [5], the inhibition at 1 µM is 2.4 ± 1.1%, the inhibition at 5 µM came to 36.1 ± 5.4% and the inhibition at 10 µM was 48 ± 4.8%.

On to `COc1ccc2oc(=O)c(-c3csc(NC(=O)CCCCC(=O)O)n3)cc2c1` [Compound 7c], for which, in series [1], half-maximal inhibition (IC50) was put at 4.7 ± 0.31 µM. Besides, the IC50 in series [2] came to 3.38 ± 0.302 µM. In addition, the IC50 in series [3] stood at 2.43 ± 0.157 µM. The CC50 at 48 h in series [4] stood at 99.5 ± 6.3 µM. Further, in series [5], the inhibition at 1 µM amounted to 6 ± 0.4%, the inhibition at 5 µM was 33 ± 4.1% and the inhibition at 10 µM stood at 48.8 ± 5.2%.
